In patent publication US20040192680A1, “Novel amides that activate soluble guanylate cyclase” (priority 2002, published 2004):

Target: T1, soluble guanylate cyclase (α1 and β1 subunits of guanylate cyclase, expressed in Sf9 cells) (Homo sapiens, UniProt Q02108+Q02153)
T1 construct: made in house; host or cells: Sf9 insect cells (baculovirus co-infection); high-speed supernatant used unpurified
T1 sequence (Q02108 1-690): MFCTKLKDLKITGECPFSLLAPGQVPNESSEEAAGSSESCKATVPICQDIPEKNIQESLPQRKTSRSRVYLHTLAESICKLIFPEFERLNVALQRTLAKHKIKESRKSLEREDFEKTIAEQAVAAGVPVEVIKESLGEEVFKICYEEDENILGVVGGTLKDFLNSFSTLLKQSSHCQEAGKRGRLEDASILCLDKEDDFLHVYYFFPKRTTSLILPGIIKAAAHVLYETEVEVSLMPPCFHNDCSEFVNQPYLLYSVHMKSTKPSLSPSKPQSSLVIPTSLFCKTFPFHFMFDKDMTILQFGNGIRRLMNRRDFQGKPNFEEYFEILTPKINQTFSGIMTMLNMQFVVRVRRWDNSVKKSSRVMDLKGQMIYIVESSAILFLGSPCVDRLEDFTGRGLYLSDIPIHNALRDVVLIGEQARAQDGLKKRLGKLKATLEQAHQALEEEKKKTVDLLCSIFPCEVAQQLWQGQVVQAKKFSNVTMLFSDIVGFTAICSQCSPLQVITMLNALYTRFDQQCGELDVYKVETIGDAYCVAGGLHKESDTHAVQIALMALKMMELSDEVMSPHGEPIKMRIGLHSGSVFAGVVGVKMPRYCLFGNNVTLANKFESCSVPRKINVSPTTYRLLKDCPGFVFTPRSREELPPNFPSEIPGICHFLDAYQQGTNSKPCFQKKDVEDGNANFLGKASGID
T1 sequence (Q02153 1-619): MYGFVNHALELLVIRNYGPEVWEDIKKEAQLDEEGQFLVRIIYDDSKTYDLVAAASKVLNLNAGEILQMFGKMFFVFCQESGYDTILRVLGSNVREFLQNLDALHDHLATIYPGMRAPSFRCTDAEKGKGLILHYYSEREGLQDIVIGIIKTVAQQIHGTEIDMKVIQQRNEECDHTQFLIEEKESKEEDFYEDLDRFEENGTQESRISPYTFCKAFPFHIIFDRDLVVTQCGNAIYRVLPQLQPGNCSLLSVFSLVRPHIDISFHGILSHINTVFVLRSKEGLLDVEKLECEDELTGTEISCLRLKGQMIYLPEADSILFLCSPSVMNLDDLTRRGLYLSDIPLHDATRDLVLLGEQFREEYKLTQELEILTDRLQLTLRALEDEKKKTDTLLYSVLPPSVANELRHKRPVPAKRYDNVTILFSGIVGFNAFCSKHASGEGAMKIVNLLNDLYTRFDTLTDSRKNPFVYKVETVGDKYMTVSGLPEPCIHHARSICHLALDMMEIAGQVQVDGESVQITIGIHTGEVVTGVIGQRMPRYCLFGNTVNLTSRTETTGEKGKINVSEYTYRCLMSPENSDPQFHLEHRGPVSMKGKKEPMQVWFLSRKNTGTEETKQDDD
Assay: Guanylate Cyclase Assay (formation of cyclic GMP from GTP, with and without SNP)
Assay type: biochemical
Details: compound at 100 μM without SNP; normalized with the activity of 100 μM YC-1 (without SNP) as 100%
Experimental: Sf9 cells were cultured in Sf-90011 medium supplemented with 10% (v/v) fetal calf serum at 28° C. to give a count of 6×10^5 cells/ml. The cells were then infected with a mixture of the virus stocks for the α1 and β1 subunits of guanylate cyclase at a multiplicity of infection of 0.1 pfu/cell. The cells were harvested 72 hours after infection and were pelleted by centrifugation. The resulting cell pellets were homogenized with Polytron homogenizer in 3 volumes of 20 mM Tris-HCl (pH 7.6) containing 1 mM EDTA, 5 mM dithiothreitol, 90 mM NaCl, 10% glycerol, and protease inhibitors mix (Roche Molecular Biochemicals). The homogenate was centrifuged at 50,000×g for 60 minutes and the supernatant was aliquotted and stored at −80° C. […]
Guanylate cyclase activity was measured by the formation of cyclic GMP from GTP in a total volume of 100 μl. […] The solution was centrifuged at 3000 rpm for 15 minutes at room temperature and cyclic GMP in 20 μl of the resulting supernatant was measured according to the protocol of Amersham cyclic GMP enzymeimmunoassay system (purchased from Sigma, catalogue number RPN 226).
Compounds of the present invention were tested at 100 μM with and without 1 μM sodium nitro prusside (SNP). […] Mean basal efficacy, in Table 1, was expressed as a percentage of 100 μM YC-1 (without SNP). […]

CC(O)CCNC(=O)/C=C/c1ccccc1Sc1ccc(Cl)cc1 (stereo not shown) [Example 38, (2E)-3-{2-[(4-chlorophenyl)thio]pheny}-N-(3-hydroxybutyl)acrylamide]
Mean basal efficacy of compound alone at 100 μM, [%]: 60%
